From paper PMC11649117, “SLMO transfers phosphatidylserine between the outer and inner mitochondrial membrane in Drosophila” (PLOS Biology, 2024)

Target: T1, SLMO (Slowmo); MBP-SLMO (Drosophila melanogaster, UniProt Q9V3U9)
T1 construct: N-terminal MBP fusion from pMAL-c6T (BamHI/EcoRI), E. coli BL21(DE3), Ni-NTA purified; tag kept
T1 sequence (Q9V3U9 1-215): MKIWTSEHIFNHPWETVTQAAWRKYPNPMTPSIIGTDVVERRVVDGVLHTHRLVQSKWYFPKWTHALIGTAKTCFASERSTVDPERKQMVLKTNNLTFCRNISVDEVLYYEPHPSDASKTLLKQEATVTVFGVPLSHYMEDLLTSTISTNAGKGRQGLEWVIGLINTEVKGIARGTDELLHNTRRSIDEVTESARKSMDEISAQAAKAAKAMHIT
Assay: liposome lipid transfer assay, NBD dequenching
Format: biochemical
Conditions: labelled compound, donor liposomes PC:PE:Rhod-PE:NBD-PS 56:40:3:1, acceptor PC:PE:CL 55:40:5, no chemical conversion

`CCCCCCCC/C=C\CCCCCCCC(=O)OC[C@H](COP(=O)(O)OC[C@H](N)C(=O)O)OC(=O)CCCCCCCCCCCNc1ccc([N+](=O)[O-])c2nonc12` [NBD-PS] was tested, and the “liposome lipid transfer assay, NBD dequenching” value was “SLMO efficiently transported PS but not PE between liposomes in vitro”.
